Source: ChEMBL document CHEMBL1201862, “PubChem BioAssay data set” (2004)
Calls of active or inactive are those of the source. Cut-off read from the data, not from the text of the source: actives have a measured IC50 and inactives only a lower limit.

Molecular target: Envelope glycoprotein gp160 (Human immunodeficiency virus 1, UniProt Q6QLK5)
Experiment: cell-free HIV fusion peptide-binding blockers – biochemical, uHTS, fluorescence dequenching, […] (AID 1986)

Envelope glycoprotein gp160, sequence (Q6QLK5 whole entry, the tested form may be a part): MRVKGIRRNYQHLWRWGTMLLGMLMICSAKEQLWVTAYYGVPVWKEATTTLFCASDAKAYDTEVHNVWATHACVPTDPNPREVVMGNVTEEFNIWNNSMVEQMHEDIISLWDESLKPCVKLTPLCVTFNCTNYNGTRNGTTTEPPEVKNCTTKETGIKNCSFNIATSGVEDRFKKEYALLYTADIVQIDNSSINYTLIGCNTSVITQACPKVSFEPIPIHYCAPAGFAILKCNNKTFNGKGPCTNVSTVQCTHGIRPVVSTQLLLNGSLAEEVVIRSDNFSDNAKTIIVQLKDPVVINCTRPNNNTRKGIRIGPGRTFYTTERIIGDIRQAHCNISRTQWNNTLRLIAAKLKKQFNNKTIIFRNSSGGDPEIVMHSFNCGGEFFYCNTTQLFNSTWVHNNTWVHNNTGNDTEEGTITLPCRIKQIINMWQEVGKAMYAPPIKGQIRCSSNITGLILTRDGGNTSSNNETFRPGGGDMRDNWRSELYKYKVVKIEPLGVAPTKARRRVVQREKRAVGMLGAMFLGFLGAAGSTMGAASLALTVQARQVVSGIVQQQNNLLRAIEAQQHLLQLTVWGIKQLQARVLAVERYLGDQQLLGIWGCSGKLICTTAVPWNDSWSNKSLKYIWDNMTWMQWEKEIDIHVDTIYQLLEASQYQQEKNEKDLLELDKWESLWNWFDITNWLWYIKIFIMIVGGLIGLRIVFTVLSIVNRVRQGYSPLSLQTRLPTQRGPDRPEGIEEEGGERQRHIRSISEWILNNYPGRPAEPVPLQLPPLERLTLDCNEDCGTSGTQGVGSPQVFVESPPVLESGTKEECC

Row | Structure (SMILES) | IC50
1 | N#Cc1c(O)nc(SCc2cccc(Cl)c2)nc1-c1ccccc1 | 24.8 µM (active)
2 | O=C(O)c1cc(N/N=C/c2ccc(-c3ccccc3)cc2)ccc1Cl | 16.1 µM (active)
